Measured values taken from ChEMBL document CHEMBL4417627, “Dab2 inhibitors for the prevention and treatment of cystic fibrosis” (2017).

What was measured:
Format in all cases: cell-based
[1] = Toxicity in human CFBE cells assessed as reduction in cell viability incubated for 12 hrs by LDH assay
[2] = Toxicity in human CFBE cells assessed as reduction in cell viability at 5 to 100 uM incubated for 3 hrs by MTT assay
[3] = Toxicity in human CFBE cells assessed as reduction in cell viability incubated for 3 hrs by LDH assay
[4] = Toxicity in human CFBE cells assessed as reduction in cell viability at 5 to 100 uM incubated for 12 hrs by MTT assay
[5] = Toxicity in human CFBE cells assessed as reduction in cell viability at 100 uM incubated for 3 hrs by LDH assay relative to control 1% triton
[6] = Toxicity in human CFBE cells assessed as reduction in cell viability at 40 uM incubated for 24 hrs by LDH assay relative to control 1% triton

SMILES | Activity [1] | Activity [2] | Activity [3] | Activity [4] | Activity [5] | Activity [6]
CN1CCc2cccc3c2[C@@H]1Cc1ccc(O)c(O)c1-3.Cl | Dose-dependent effect | Non-Toxic | Dose-dependent effect | Non-Toxic | – | –
CC1(C)Cc2ccccc2-c2n[nH]c(=S)n21 | Toxic | Non-Toxic | Non-Toxic | Non-Toxic | <= 10% | –
C[C@]12CC[C@@H]3c4cc(O)c(O)cc4CC[C@H]3[C@@H]1CC[C@@H]2O | Dose-dependent effect | Non-Toxic | Dose-dependent effect | Non-Toxic | – | 20 to 40%
